SMILES strings stand for the structures.

This passage reports inhibition and IC50 results from patent US8598132B2, “Glycosylated indolocarbazoles, method for obtaining same and uses thereof” (Universidad de Oviedo, priority 2008, dated 2013).

Holding throughout (type): biochemical
Holding throughout (conditions): for inhibition at 0.01 µM: compound at 10 nM; for inhibition at 0.01 µM / inhibition at 0.1 µM: read-out: remaining kinase activity (in %) / percentage of inhibition; for inhibition at 0.1 µM: compound at 100 nM; for IC50: ATP at Km, read-out: CI50 (the source's name)

The target of experiment [1] is T1, AurA (Homo sapiens, UniProt O14965).
T1 construct: purchased Carna Biosciences
T1 sequence (O14965 1-403): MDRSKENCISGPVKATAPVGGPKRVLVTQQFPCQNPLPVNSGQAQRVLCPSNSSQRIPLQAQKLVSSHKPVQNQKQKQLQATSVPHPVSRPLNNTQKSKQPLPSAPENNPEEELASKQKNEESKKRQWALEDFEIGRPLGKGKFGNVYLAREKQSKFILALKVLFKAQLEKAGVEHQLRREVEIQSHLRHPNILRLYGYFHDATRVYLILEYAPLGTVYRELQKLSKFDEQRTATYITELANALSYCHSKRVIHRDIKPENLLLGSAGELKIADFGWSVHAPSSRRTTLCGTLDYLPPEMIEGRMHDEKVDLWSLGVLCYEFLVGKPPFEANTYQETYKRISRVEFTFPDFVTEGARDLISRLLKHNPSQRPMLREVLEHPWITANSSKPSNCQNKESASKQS
Put plainly: LabChip (Caliper) kinase assay, AurA. How it is done:
(§1) The analysis of kinase activity described here was performed using LabChip (Caliper Life Sciences), specifically the Caliper LC3000 and the EZ Reader II instruments.
(§2) The kinase assay used measures the conversion of a fluorescent peptide (substrate) to a phosphorylated product. The reaction mixture, in a microplate well, is introduced by a capillary in a chip where the non-phosphorylated substrate and the phosphorylated product are separated by […]. The intensity of the fluorescent signal over time is related to the reaction progress. The phosphorylated product migrates quicker than the non-phosphorylated substrate and the signals of the two forms of the peptide appear as differentiated peaks. The Caliper determines the peak height and calculates the ratio of product to the peak sum (P/(P+S)). This value is used to compare wells with compounds and wells with controls and thus determine the % of inhibition for the given product.
(§3) The followings kinases were used for the enzymatic inhibition studies, between brackets the value of the Michaelis-Menten constant, Km, of the ATP (Adenosine triphosphate) for each kinase, in μM: obtained from Carna Biosciences: MAPKAPK2 (4.6), AurA (3.6), AurB (5), PKCζ (3.8), RSK1 (23.3), PRAK (5), Erk1 (33.4), PKD2 (32.1), CK1d (16.3), CHK1 (33), ABL (61.7), FYN (36), LYNa (17), CHK2 (57.8), MET (79.5), LCK (28.5), SRC (38), GSK3β (7.3), Erk2 (62.1), PKACα (1.7), AKT2 (186.1), INSR (871.8), p38a (396.5), AKT1(48), MSK1 (21.2), PKCβ2 (84.8), ROCK2 (3.3), PIM2 (4.9), AMPK (38.6), KDR (164.8), IRAK4 (196.5), SGK1 (121.8), SYK (33.5); obtained from Invitrogen: CDK2 (57.6), BTK (123), HGK (80); obtained from Upstate: MST2 (36.6), PKGα (16), PAK2 (1.9), IGF1R (320), FGFR1 (171), MARK1 (33), CAMK2δ (22.4), c-TAK1 (66), DYRK1a (18.1), CaMK4 (3.9), FLT3 (350), c-Raf (6.2), P70S6K (95).
(§4) The compounds were dissolved in 100% DMSO and were diluted at 25 times the final concentration desired for the assay. In the case of the determination of Cl50, serial dilutions were made to reach eight concentrations and give rise to the inhibition curve. 1 μL of each concentration is transferred, in duplicate to a 384-well microplate. 12 μL of enzymatic buffer is added to each well containing purified kinase (several suppliers as indicated above), 100 mM HEPES, pH 7.5, 1 mM DTT (Calbiochem), 0.002% Brij-35 (Sigma) and also in presence of 10 mM MgCl2 as cofactor, except for INSR and IRAK4 wherein 10 mM MnCl2 is used instead of MgCl2. For the kinases CAMK26 and CAMK4, 1 mM CaCl2 and 6.7 μg/mL of calmodulin are also added. For KDR kinase, 0.05% of the CHAPSO detergent is added. For the c-Raf kinase, 10 mM MnCl2 is added. For PKCβ2 0.02 μg/mL of PS/PMA is added. For PKGα se 10 μM of cGMP (cyclic guanosine monophosphate) is added. The compound and the enzyme are left for 15 minutes preincubation and, then, the following are added to each well: 12 μL of peptide buffer/ATP containing 100 mM HEPES, pH 7.5, 1.5 μM peptide marker with fluorescein (specific for the corresponding kinase), ATP (at concentration KM), and 0.002% Brij-35 to start the reaction. Generally, the reactions are incubated for 1-1.5 h at ambient temperature to obtain an adequate conversion (15-40%) of the peptide to the phosphorylated product. The reactions were ended by the addition of 45 μL of buffer containing 0 mM EDTA. The microplates were read by the LabChip 3000 using a 12-channel LabChip. The P/(P+S) values were obtained as described above and the CI50 curves were generated using XIfit.
(§5) Table 9a has the 0150 data obtained in pairs of compound-kinase selected from the compounds of formula (VII), (VIII), (IX), (XVI), (XVII) and (XVIII) after taking inhibition measurements at 100 nM and 10 nM. Those couples that provide >70% of inhibition at 10 nM were consider for measuring its IC50. […]

For experiment [2], the target named is T2, SYK (Homo sapiens, UniProt P43405).
T2 construct: purchased Carna Biosciences
Put plainly: LabChip (Caliper) kinase assay, SYK. Here is the method:
as §1, §2, §3, §4, §5

For experiment [3], the target named is T3, FGFR1 (Homo sapiens, UniProt P11362).
T3 construct: purchased Upstate
T3 sequence (P11362 22-822, species assumed): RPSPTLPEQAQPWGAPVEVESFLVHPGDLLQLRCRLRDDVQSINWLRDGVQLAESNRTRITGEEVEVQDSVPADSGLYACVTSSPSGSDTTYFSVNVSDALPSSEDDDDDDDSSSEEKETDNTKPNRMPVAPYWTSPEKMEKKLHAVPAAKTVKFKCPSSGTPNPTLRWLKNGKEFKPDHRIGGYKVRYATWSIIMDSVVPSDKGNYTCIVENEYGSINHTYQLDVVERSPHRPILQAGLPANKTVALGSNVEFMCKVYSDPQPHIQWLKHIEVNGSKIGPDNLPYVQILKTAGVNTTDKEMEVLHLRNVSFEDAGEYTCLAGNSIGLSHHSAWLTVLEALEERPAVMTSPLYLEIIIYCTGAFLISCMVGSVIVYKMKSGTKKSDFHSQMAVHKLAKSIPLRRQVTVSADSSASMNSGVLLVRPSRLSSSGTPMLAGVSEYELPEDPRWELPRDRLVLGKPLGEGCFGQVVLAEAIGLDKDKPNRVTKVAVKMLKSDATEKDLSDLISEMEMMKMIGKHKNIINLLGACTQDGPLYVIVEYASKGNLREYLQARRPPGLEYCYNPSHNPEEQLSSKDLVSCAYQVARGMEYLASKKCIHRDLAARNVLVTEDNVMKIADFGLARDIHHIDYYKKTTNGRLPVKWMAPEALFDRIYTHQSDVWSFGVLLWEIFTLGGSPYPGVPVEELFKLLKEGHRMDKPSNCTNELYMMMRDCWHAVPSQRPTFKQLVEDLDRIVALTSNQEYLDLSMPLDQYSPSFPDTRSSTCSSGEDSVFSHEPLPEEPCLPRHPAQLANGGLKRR
Put plainly: LabChip (Caliper) kinase assay, FGFR1. How it is done:
as §1, §2, §3, §4, §5

Regarding `C[C@@H]1O[C@@H](n2c3ccccc3c3c4c(c5c6ccccc6[nH]c5c32)C(=O)NC4=O)[C@H](O)[C@H](O)[C@H]1O` [formula (III), N^13-1′-β-L-rhamnosylarcyriaflavin], the inhibition at 0.01 µM was 0% in experiment [1], 2% in experiment [2] and 3% in experiment [3]. The inhibition at 0.1 µM in experiment [1] is 5%; in experiment [2], -8%; in experiment [3] it was 4%.
Turning to `C[C@@H]1O[C@@H](n2c3ccccc3c3c4c(c5c6ccccc6[nH]c5c32)C(=O)NC4=O)C[C@H](O)[C@H]1O` [formula (IV), N^13-1′-β-L-olivosylarcyriaflavin], the inhibition at 0.01 µM in experiment [1] was determined as 4%; in experiment [2], 11%; in experiment [3], 3%. The results for the inhibition at 0.1 µM in experiment [1], in experiment [2] and in experiment [3] were 19%, 35% and 21%, respectively.
Consider `C[C@]12O[C@H](C[C@@H](O)[C@H]1O)n1c3ccccc3c3c4c(c5c6ccccc6n2c5c31)C(=O)NC4=O` [formula (IX), N^12-5′(S)-N^13-1′-(R)-L-digitoxosylarcyriaflavin], for which the IC50 is 6.7 nM in experiment [1], 2.3 nM in experiment [2] and above 10 nM in experiment [3].
With `C[C@@H]1O[C@@H](n2c3ccccc3c3c4c(c5c6ccccc6[nH]c5c32)C(=O)NC4=O)C[C@@H](O)[C@H]1O` [formula (V), N^13-1′-β-L-digitoxosylarcyriaflavin], the inhibition at 0.01 µM in experiment [1] came to 4%; in experiment [2], 13%; in experiment [3], 7%. Besides, the inhibition at 0.1 µM in experiment [1] worked out at 22%; in experiment [2], 24%; in experiment [3], 34%.
With `C[C@H]1O[C@@H](n2c3ccccc3c3c4c(c5c6ccccc6[nH]c5c32)C(=O)NC4=O)C[C@@H](O)[C@@H]1O` [formula (VI), N^13-1′-β-D-olivosylarcyriaflavin], the inhibition at 0.01 µM in experiment [1] stood at 3%; in experiment [2] it was 5%; in experiment [3] it was 1%. Moreover, the inhibition at 0.1 µM in experiment [1] came to 13%; in experiment [2] it was 31%; in experiment [3], 25%.
As for `C[C@]12O[C@H]([C@H](O)[C@H](O)[C@H]1O)n1c3ccccc3c3c4c(c5c6ccccc6n2c5c31)C(=O)NC4=O` [formula (VII), N^12-5′(S)-N^13-1′-(R)-L-rhamnosylarcyriaflavin], the figures for the IC50 in experiment [1], in experiment [2] and in experiment [3] were above 10 nM, 1 nM and 8.9 nM, respectively.
Regarding `C[C@]12O[C@H](C[C@H](O)[C@H]1O)n1c3ccccc3c3c4c(c5c6ccccc6n2c5c31)C(=O)NC4=O` [formula (VIII), N^12-5′(S)-N^13-1′-(R)-L-olivosylarcyriaflavin], the values for the IC50 in experiment [1] and in experiment [2] were above 10 nM and 1.1 nM, respectively.
In the case of `C[C@@H]1O[C@@H](n2c3ccccc3c3c4c(c5c6ccccc6[nH]c5c32)CNC4=O)[C@H](O)[C@H](O)[C@H]1O` [formula (XII), N^13-1′-β-L-rhamnosyl-k252c], the values for the inhibition at 0.01 µM in experiment [1], in experiment [2] and in experiment [3] were 2%, 8% and 1%, respectively. The inhibition at 0.1 µM in experiment [1] stood at 3%; in experiment [2], 10%; in experiment [3], 5%.
On to `C[C@@H]1O[C@@H](n2c3ccccc3c3c4c(c5c6ccccc6[nH]c5c32)CNC4=O)C[C@H](O)[C@H]1O` [formula (XIII), N^13-1′-β-L-olivosyl-k252c], for which the inhibition at 0.01 µM is 2% in experiment [1], 12% in experiment [2] and -1% in experiment [3]. In addition, the inhibition at 0.1 µM is 24% in experiment [1], 30% in experiment [2] and 7% in experiment [3].
For the compound `C[C@@H]1O[C@@H](n2c3ccccc3c3c4c(c5c6ccccc6[nH]c5c32)CNC4=O)C[C@@H](O)[C@H]1O` [formula (XIV), N^13-1′-β-L-digitoxosyl-k252c], the figures for the inhibition at 0.01 µM in experiment [1], in experiment [2] and in experiment [3] were 1%, -1% and 1%, respectively. Also, the inhibition at 0.1 µM in experiment [1] turned out to be 5%; in experiment [2], 11%; in experiment [3] it was 5%.
As to `C[C@H]1O[C@@H](n2c3ccccc3c3c4c(c5c6ccccc6[nH]c5c32)CNC4=O)C[C@@H](O)[C@@H]1O` [formula (XV), N^13-1′-β-D-olivosyl-k252c], the results for the inhibition at 0.01 µM in experiment [1], in experiment [2] and in experiment [3] were 3%, 7% and -2%, respectively. Moreover, the inhibition at 0.1 µM in experiment [1] stood at 20%; in experiment [2], 29%; in experiment [3], 7%.
As for `C[C@]12O[C@H](C[C@H](O)[C@H]1O)n1c3ccccc3c3c4c(c5c6ccccc6n2c5c31)CNC4=O` [formula (XVII), N^12-5′(S)-N^13-1′-(R)-L-olivosyl-k252c], the IC50 was 5 nM in experiment [1] and above 10 nM in experiment [3].
As for `C[C@]12O[C@H](C[C@@H](O)[C@H]1O)n1c3ccccc3c3c4c(c5c6ccccc6n2c5c31)CNC4=O` [formula (XVIII), N^12-5′(S)-N^13-1′-(R)-L-digitoxosyl-k252c], the IC50 is above 10 nM in experiment [1], above 10 nM in experiment [2] and above 100 nM in experiment [3].
